From patent US20050245489A1, “Chromene-containing compounds with anti-tubulin and vascular targeting activity” (priority 2004, published 2005)
In brackets after ≈: the same amount, converted by molar mass.

What was measured:
[1] = tested on: MCF-7 (breast) cancer cell line; test: In vitro growth inhibition (SRB), MCF-7; format: cell-based, human; conditions: for GI50: Homo sapiens, MCF7, 48 hours
Description: (§1) Newly prepared compounds were evaluated for cytotoxic activity against a variety of cell lines derived from human tumors using an assay system similar to the National Cancer Institute procedure previously described (Monks et al, J. Natl. Cancer Inst., 1991). Briefly, the cell suspensions, diluted according to the particular cell type and the expected target cell density (5,000-40,000 cells per well based on cell growth characteristics), were added by pipet (100 μl) to 96-well microtiter plates. Inoculates were allowed a preincubation time of 24-28 hours at 37° C. for stabilization. Incubation with the inhibitor compounds lasted for 48 hours in 5% CO2 atmosphere and 100% humidity. Determination of cell growth was performed by in situ fixation of cells, followed by staining with a protein-binding dye sulforhodamine B (SRB), which binds to the basic amino acids of cellular macromolecules. The solubilized stain was measured spectrophotometrically.
(§2) Several compounds were evaluated for cytotoxic activity against […] P388 leukemia cell lines. The effective dose or ED50 value (defined as the effective dosage required to inhibit 50% of cell growth) was measured. These and additional compounds were evaluated in terms of growth inhibitory activity against several other human cancer cell lines including: central nervous system (“CNS”, SF-268), pancreas (BXPC-3), non-small cell lung cancer (“lung-NSC”, NCI-H460), breast (MCF-7), colon (KM20L2), ovarian (OVCAR-3), and prostate (DU-145). The growth inhibition GI50 (defined as the dosage required to inhibit tumor cell growth by 50%) is listed for each cell line.

[2] = tested on: DU-145 (prostate) cancer cell line; test: In vitro growth inhibition (SRB), DU-145; format: cell-based, human; conditions: 48 hours; for GI50: Homo sapiens
Description: as §1, §2

[3] = tested on: NCI-H460 (lung-NSC) cancer cell line; test: In vitro growth inhibition (SRB), NCI-H460; format: cell-based, human; conditions: 48 hours; for GI50: Homo sapiens
Description: as §1, §2

[4] = tested on: BXPC-3 (pancreas) cancer cell line; test: In vitro growth inhibition (SRB), BXPC-3; format: cell-based, human; conditions: 48 hours; for GI50: Homo sapiens
Description: as §1, §2

[5] = tested on: KM20L2 (colon) cancer cell line; test: In vitro growth inhibition (SRB), KM20L2; format: cell-based, human; conditions: for GI50: Homo sapiens, KM-20L2, 48 hours
Description: as §1, §2

[6] = tested on: SF-268 (CNS) cancer cell line; test: In vitro growth inhibition (SRB), SF-268; format: cell-based, human; conditions: 48 hours; for GI50: Homo sapiens
Description: as §1, §2

[7] = tested on: purified tubulin; test: In vitro inhibition of tubulin polymerization; format: biochemical; conditions: purified bovine brain tubulin 1.5 mg/ml, 15 min preincubation at 37° C., GTP-induced, 350 nm
Description: IC50 values for tubulin polymerization were determined according to a previously described procedure (Bai et al., Cancer Research, 1996). Purified tubulin is obtained from bovine brain cells as previously described (Hamel and Lin, Biochemistry, 1984). Various amounts of inhibitor were preincubated for 15 minutes at 37° C. with purified tubulin. After the incubation period, the reaction was cooled and GTP was added to induce tubulin polymerization. Polymerization was then monitored in a Gilford spectrophotometer at 350 nm. The final reaction mixtures (0.25 ml) contained 1.5 mg/ml tubulin, 0.6 mg/ml microtubule-associated proteins (MAPs), 0.5 mM GTP, […], 4% DMSO and 0.1M 4-morpholineethanesulfonate buffer (MES, pH 6.4). IC50 is the amount of inhibitor needed to inhibit tubulin polymerization 50% with respect to the amount of […] that occurs in the absence of inhibitor.

[8] = tested on: P388 leukemia cell lines; test: In vitro cytotoxicity (SRB) against P388 leukemia cell line; format: cell-based, mouse; conditions: 48 hours incubation
Description: as §1
Several compounds were evaluated for cytotoxic activity against […] P388 leukemia cell lines. […] These and additional compounds were evaluated in terms of growth inhibitory activity against several other human cancer cell lines including: central nervous system (“CNS”, SF-268), pancreas (BXPC-3), non-small cell lung cancer (“lung-NSC”, NCI-H460), breast (MCF-7), colon (KM20L2), ovarian (OVCAR-3), and prostate (DU-145). […]

[9] = tested on: MHEC-5T hemangioendothelioma tumor; test: Inhibition of tumor blood flow, Fluorescent Bead Assay; format: in vivo, SCID mice; conditions: 24 hours post-treatment, vessel area per tumor tissue area as percentage of control
Description: The antivascular effects of the chromene phosphate prodrug were assessed in tumor-bearing mice using a Fluorescent Bead Assay. A MHEC-5T hemangioendothelioma tumor model was established by subcutaneous injection of 0.5×10^6 cultured transformed cell murine myocardial vascular endothelial cell line (“MHEC5-T”) cells into the right flank of Fox Chase CB-17 Severe Combined Immunodeficient (“SCID”) mice. […] At 24 hours post-treatment, mice were injected intravenously with 0.25 ml of diluted FluoSphere beads (1:6 in physiological saline) in the tail vein, sacrificed after 3 minutes, and tumor was excised for cryosectioning. Tumor cryosections at a thickness of 8 um were directly examined using quantitative fluorescent microscopy. Blood vessels were indicated by blue fluorescence from injected beads. For quantification, image analysis of 3 sections from three tumors treated in each group were examined and vascular shutdown was expressed as vessel area (mm^2) per tumor tissue area (mm^2) as a percentage of the control (“% VAPM”).

GI50 [1] [µg/mL]	GI50 [2] [µg/mL]	GI50 [3] [µg/mL]	GI50 [4] [µg/mL]	GI50 [5] [µg/mL]	GI50 [6] [µg/mL]	IC50 [7] [nM]	GI50 for Cell Line MCF-7 ([1]; 48 hours) [µg/mL]	GI50 for Cell Line DU-145 [2] [µg/mL]	GI50 for Cell Line NCI-H460 [3] [µg/mL]	GI50 for Cell Line BXPC-3 [4] [µg/mL]	GI50 for Cell Line KM20L2 ([5]; 48 hours) [µg/mL]	GI50 for Cell Line SF-268 [6] [µg/mL]	Compound	ED50 for P-388 Cell Line [8] [µg/mL]	% VAPM at 10 mg/kg dose ([9]; 10 mg/kg single i.p. dose) [%]	% VAPM at 100 mg/kg dose ([9]; 100 mg/kg single i.p. dose) [%]
0.3 (≈ 0.842 µM)	0.26 (≈ 0.73 µM)	0.3 (≈ 0.842 µM)	0.27 (≈ 0.758 µM)	0.47 (≈ 1.32 µM)	0.32 (≈ 0.898 µM)	–	–	–	–	–	–	–	COc1ccc2c(c1)OCC(C(=O)c1cc(OC)c(OC)c(OC)c1)=C2 [Compound 8, 3-(3′, 4′, 5′-Trimethoxybenzoyl)-7-methoxy-2H-chromene]	–	–	–
0.069 (≈ 0.185 µM)	0.16 (≈ 0.43 µM)	0.32 (≈ 0.859 µM)	0.27 (≈ 0.725 µM)	2.3 (≈ 6.18 µM)	0.45 (≈ 1.21 µM)	1000 to 4000	–	–	–	–	–	–	COc1cc2c(cc1O)C=C(C(=O)c1cc(OC)c(OC)c(OC)c1)CO2 [Compound 9, 3-(3′, 4′, 5′-Trimethoxybenzoyl)-6-hydroxy-7-methoxy-2H-chromene]	0.25	–	–
–	–	–	–	–	–	–	0.056	0.18	0.14	0.44	3.5	0.034	3-(3′,4′,5′-Trimethoxybezoyl)-7-methoxy-2H-chromene-phosphate salt [Compound 7]	0.173	57	33
0.0055 (≈ 0.0148 µM)	0.049 (≈ 0.132 µM)	0.46 (≈ 1.24 µM)	3.5 (≈ 9.4 µM)	3.2 (≈ 8.59 µM)	0.022 (≈ 0.0591 µM)	–	–	–	–	–	–	–	COc1ccc2c(c1O)OCC(C(=O)c1cc(OC)c(OC)c(OC)c1)=C2 [Compound 5, 3-(3′,4′,5′-Trimethoxybezoyl)-7-methoxy-8-hydroxy-2H-chromene]	–	–	–
